Laboratory results reported in patent publication US9918983B2, “Suicidal LSD1 inhibitors targeting SOX2-expressing cancer cells” (THE BOARD OF REGENTS OF THE NEVADA SYSTEM OF HIGHER …, priority 2013, dated 2018).

Columns and labels:
LSD1 = target: T1, LSD1 (Homo sapiens, UniProt O60341); assay: LSD1 activity (LSD1 IC50, Table 7, FIG. 2); assay type: cell-based
T1 construct: LSD1 activity determined in a cell-based assay as described herein; endogenous in cells
Method: For a typical deacetylation assay, 1 μg rHDAC1 or 1 μg immunoprecipitated endogenous HDAC1-protein A complexes (from two 10-cm dishes) was incubated with 0.4 μg H4K16ac peptide in the presence or absence of 50 μM CBB1007 or 2 μM MS-275 at 30° C. for 1 h. The percentages of deacetylated products were analyzed by mass spectrometry, and the data were analyzed by GraphPad Prism (version 5) software. The reaction products were analyzed by mass spectrometry to separate the peptide substrate (H4K16ac) and the product (H4K16), as previously described (Wang, J., et al. (2011) Cancer Research 71, 7238-7249). For a typical demethylation assay, 0.4 μg H3K4me2 substrate peptide was incubated individually with 1 μg recombinant LSD1 (rLSD1) or 1 μg immunoprecipitated LSD1-protein A complex in the presence or absence of 50 μM CBB1007 or 2 μM MS-275 at 30° C. for 1 h. The reaction products were analyzed by mass spectrometry to separate the products (H3K4me1 and H3K4) from the substrate (H3K4me2), as previously described (Wang, J., et al. (2011) Cancer Research 71, 7238-7249).
Table 7 below lists specific compounds and LSD1 activity determined in a cell-based assay as described herein (see also FIGS. 2A and 2B).

A549 cells = assay: Cell cycle analysis by FACS in A549 cells; assay type: cell-based, human; details: 50 nM siRNA
Method: (§1) The fluorescence-activated cell sorting (FACS) and 3-(4,5-dimethyl-2-thiazolyl)-2,5-diphenyl-2H-tetrazolium bromide (MTT) assays were conducted as described previously (Lan, R., et al. (2012) Lab. Invest. 92, 1503-1514). To synchronize PA-1 and F9 cells at the G1/S phase transition, cells were treated with 2.5 mM thymidine for 12 h, released into fresh medium for 6 h, and blocked again with 2.5 mM thymidine for an additional 12 h. The cell cycle arrest was analyzed by FACS. For differentiation, F9 and PA-1 cells were seeded in 6-well plates at a density of 1×10^4 cells per well and supplemented with 5 μM RA for 3 days. Cells were then recultured in fresh medium without RA for another 2 days, and the cell cycle was analyzed on a BD FACSCalibur cell sorter using the CellQuest program (Becton, Dickinson, Mountain View, Calif.). The percentages of cells in G1, S, and G2/M phases were determined by the use of ModFit LT software.
(§2) Referring to FIG. 9C, Sox2-expressing A549, IGROV1, T47D and Sox2-negative H1437 cells were transfected with 50 nM luciferase (Luc) or LSD1 specific siRNAs for 60 hours and the cell cycle was analyzed by flow-cytometry (FACS).
(§3) Referring to FIG. 17A, Sox2-expressing A549, IGROV1, and T47D and Sox2-negative H1437 cells were transfected with luciferase and Sox2 specific siRNAs for 48 hours. The cell cycles of these cells after Sox2 ablation were analyzed by flow-cytometry.

IGROV1 cells = assay: Cell cycle analysis by FACS in IGROV1 cells; assay type: cell-based, human; details: 50 nM siRNA
Method: as §1, §2, §3

T47D cells = assay: Cell cycle analysis by FACS in T47D cells; assay type: cell-based, human; details: 50 nM siRNA
Method: as §1, §2, §3

H1437 cells = assay: Cell cycle analysis by FACS in H1437 cells; assay type: cell-based, human; details: 50 nM siRNA
Method: as §1, §2, §3

acetylated H4K16 = assay: H4K16 acetylation in HeLa cells (Western blotting); assay type: cell-based, human; details: VPA 1 μM or MS-275 2 μM 24 h, TSA 40 nM 16 h
Method: Referring to FIG. 31B, the acetylation of H4K16 is sensitive to pan-HDAC inhibitors in HeLa cells. F9 and HeLa cells were treated with the HDAC inhibitor VPA (1 μM) or MS-275 (2 μM) for 24 h or TSA (40 nM) for 16 h. Methylated and acetylated histones H3 and H4 were blotted by specific antibodies, as indicated, and quantified by the use of Gel-Pro Analyzer (version 4.0) software.

[1] = system: histone H3 and H4 methylation and acetylation; assay: Histone modifications in F9 cells (Western blotting); assay type: cell-based, mouse
Method: To quantify and compare the protein band densities in the Western blots shown in the figures, a titration by serial dilution of the siRNA protein samples for mES cell lysates was used as a reference. The concentration of titration samples was measured by use of a NanoDrop 2000 apparatus, and the protein concentration of all titration samples was adjusted to 1 μg/μL. The protein samples were loaded onto an SDS-polyacrylamide gel at levels ranging from 1 μg to 13 μg at 2-μg intervals and immune blotted with each antibody, including anti-LSD1, anti-HDAC1, and anti-histone H3 antibodies, with three independent loadings. The Western blots were developed with exposure times ranging from 30 s to 1 min. The exposure density of each band was scanned by Adobe Photoshop Elements (version 4.0) software using a CanonScan 8600F scanner (Canon, Calif.) and was subsequently quantified by use of the area density tool of Gel-Pro Analyzer (version 4.0) software (Media Cybernetics, Inc.) and plotted. The regression analysis of each signal was performed by use of the Microsoft Excel program's Analysis Tool Pak regression option. […] The amount of the protein band in the Western blot shown in the figures was quantified by scanning, as described for the reference titration. […] The quantity of protein band densities between two protein samples was externally corrected by use of the reference plots. […] The statistical differences between the experimental and control groups were analyzed by one-way analysis of variance (ANOVA). […]
Referring to FIG. 28D, time course analyses of the effects of 50 μM LSD1 inhibitor CBB1007 on histone modifications in F9 cells are shown, but with a shorter time course than above. The mean density of each band was quantified by the use of Gel-Pro Analyzer (version 4.0) software, and error bars represent SEMs for duplicate samples. […] The statistical differences were analyzed by one-way ANOVA. *, P_0.05; **, P_0.01. […]

[2] = target: T2, recombinant HDAC1 (GST-HDAC1) (Homo sapiens, UniProt Q13547); assay: In vitro deacetylation assay, recombinant HDAC1, H4K16ac peptide; assay type: biochemical; details: 50 μM CBB1007 or 2 μM MS-275
T2 construct: Human LSD1 and HDAC1 full-length cDNAs were obtained from Open Biosystems; GST (N, cleaved yes); made in house; host or cells: Escherichia coli BL21
T2 sequence (Q13547 whole entry): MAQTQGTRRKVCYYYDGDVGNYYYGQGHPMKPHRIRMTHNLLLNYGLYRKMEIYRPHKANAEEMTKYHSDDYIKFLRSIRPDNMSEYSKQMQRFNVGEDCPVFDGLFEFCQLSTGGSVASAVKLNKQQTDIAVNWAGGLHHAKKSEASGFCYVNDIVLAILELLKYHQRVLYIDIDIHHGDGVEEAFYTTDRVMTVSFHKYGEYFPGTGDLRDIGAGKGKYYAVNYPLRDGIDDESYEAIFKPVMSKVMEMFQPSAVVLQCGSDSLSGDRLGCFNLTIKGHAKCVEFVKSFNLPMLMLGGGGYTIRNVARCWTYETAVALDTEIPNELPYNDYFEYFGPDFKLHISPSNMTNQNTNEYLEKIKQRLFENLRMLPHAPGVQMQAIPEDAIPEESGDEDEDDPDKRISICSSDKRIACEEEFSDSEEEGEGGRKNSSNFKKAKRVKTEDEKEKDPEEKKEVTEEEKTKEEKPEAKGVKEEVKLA
Source text: Human LSD1 and HDAC1 full-length cDNAs were obtained from Open Biosystems. […] These cDNAs were fully sequenced and cloned into the pGEX-KG or pET28a vector and expressed as the glutathione S-transferase (GST)- or His-tagged fusion proteins in the Escherichia coli BL21 strain and affinity purified with glutathione or Ni-Sepharose (GE Healthcare, United Kingdom) resin. […] The GST tag and uncut GST-HDAC1/GST-LSD1 proteins were depleted by glutathione-Sepharose. For the reconstitution reaction, recombinant GST-CoREST, His-LSD1, and recombinant HDAC1 (rHDAC1) (GST was removed by the use of PreScission protease) (10 μg) were assembled into the LSD1-CoREST-HDAC1 complex and then pulled down by GSTSepharose resins. Protein A-Sepharose was used as a negative-control resin.

HDAC1-protein A complex = target: T3, HDAC1-protein A complex (Mus musculus, UniProt O09106); assay: In vitro deacetylation assay, immunoaffinity-purified HDAC1-protein A complex from F9 cells; assay type: biochemical
T3 construct: 1 μg immunoprecipitated endogenous HDAC1-protein A complexes; endogenous in cells; host or cells: F9 mouse teratocarcinoma cells, anti-HDAC1 immunoprecipitate on protein A-Sepharose
Source text: (§4) The immunocomplexes were captured by protein A-Sepharose. Isolated LSD1-protein A or HDAC1-protein A complexes were verified by Western blotting with LSD1 and HDAC1 antibodies.

[3] = target: T4, recombinant LSD1 (GST-LSD1) (Homo sapiens, UniProt O60341); assay: In vitro demethylation assay, recombinant LSD1, H3K4me2 peptide; assay type: biochemical; details: H3K4me2 peptide, LSD1 and HDAC1 without CoREST
T4 construct: Human LSD1 and HDAC1 full-length cDNAs were obtained from Open Biosystems; GST (N, cleaved yes); made in house; host or cells: Escherichia coli BL21
Source text: H3K4me2 and H4K16ac were purchased from AnaSpec and Shanghai Science Peptide Biological Technology Co., Ltd., respectively. Human LSD1 and HDAC1 full-length cDNAs were obtained from Open Biosystems. Human CoREST cDNA was amplified by reverse transcription-PCR (RT-PCR) using mRNA isolated from HeLa cells. These cDNAs were fully sequenced and cloned into the pGEX-KG or pET28a vector and expressed as the glutathione S-transferase (GST)- or His-tagged fusion proteins in the Escherichia coli BL21 strain and affinity purified with glutathione or Ni-Sepharose (GE Healthcare, United Kingdom) resin. […]
For a typical deacetylation assay, 1 μg rHDAC1 or 1 μg immunoprecipitated endogenous HDAC1-protein A complexes (from two 10-cm dishes) was incubated with 0.4 μg H4K16ac peptide in the presence or absence of 50 μM CBB1007 or 2 μM MS-275 at 30° C. for 1 h. The percentages of deacetylated products were analyzed by mass spectrometry, and the data were analyzed by GraphPad Prism (version 5) software. The reaction products were analyzed by mass spectrometry to separate the peptide substrate (H4K16ac) and the product (H4K16), as previously described (Wang, J., et al. (2011) Cancer Research 71, 7238-7249). […]

LSD1-protein A complex = target: T5, LSD1-protein A complex (Mus musculus, UniProt Q6ZQ88); assay: In vitro demethylation assay, immunoaffinity-purified LSD1-protein A complex from F9 cells; assay type: biochemical
T5 construct: recombinant and endogenous LSD1 complexes isolated from F9 cells; endogenous in cells; host or cells: F9 mouse teratocarcinoma cells, anti-LSD1 immunoprecipitate on protein A-Sepharose
Source text: as §4

[4] = target: T6, LSD1-CoREST-HDAC1 complex (Homo sapiens, UniProt O60341+Q13547); assay: Reconstituted LSD1-CoREST-HDAC1 complex on oligonucleosomes; assay type: biochemical; details: 50 μM CBB1007 or 2 μM MS-275
T6 construct: Human LSD1 and HDAC1 full-length cDNAs were obtained from Open Biosystems; GST (N, cleaved yes); made in house; host or cells: Escherichia coli BL21
Method: For the reconstitution reaction, recombinant GST-CoREST, His-LSD1, and recombinant HDAC1 (rHDAC1) (GST was removed by the use of PreScission protease) (10 μg) were assembled into the LSD1-CoREST-HDAC1 complex and then pulled down by GSTSepharose resins. Protein A-Sepharose was used as a negative-control resin.
Briefly, cells (1×10^6) were washed twice with ice-cold hypotonic buffer (20 mM potassium-HEPES, pH 7.8, 5 mM potassium acetate, 0.5 mM MgCl2, 0.5 mM DTT), swelled, and disrupted with 25 strokes in a Dounce homogenizer using a tightfitting pestle. Nuclei were pelleted at 4,000 rpm for 5 min and resuspended in buffer A (20 mM HEPES, pH 7.9, 1.5 mM magnesium acetate, 50 mM potassium acetate, 10% glycerol, 0.5 mM DTT, 150 mM NaCl, protease and phosphatase inhibitors). […] The chromatin pellet was resuspended in 0.5 mL buffer B (0.32 M sucrose, 50 mM Tris-HCl, pH 7.5, 4 mM MgCl2, 1 mM CaCl2, 0.1 mM phenylmethylsulfonyl fluoride) and incubated with 30 units of micrococcal nuclease for 10 min at 37° C. The digested samples were centrifuged at 8,000×g for 10 min, and the supernatant, which contained oligonucleosomes, was recovered.
The reaction products (demethylated or deacetylated histones) were analyzed by Western blotting.

With `N[C@@H]1C[C@H]1c1ccc(OCc2ccccc2)cc1` [Compound 3] the IC50 (LSD1) was 39.4 µM.

With “LSD1 siRNA: siRNA, human LSD1: GGAAGAAGAUAGUGAAAAC (SEQ ID NO:1) (listed as RNA, chemistry not given here)” the “cell cycle population G0/G1” value (A549 cells) was 74.81%, the “cell cycle population G2/M” value (A549 cells) was 0.65% and the “cell cycle population S” value (A549 cells) was 24.55%. The “cell cycle population G0/G1” value (IGROV1 cells) was 78.07%, the “cell cycle population G2/M” value (IGROV1 cells) was 8.56% and the “cell cycle population S” value (IGROV1 cells) was 13.37%. The “cell cycle population G0/G1” value (T47D cells) was 76.34%, the “cell cycle population G2/M” value (T47D cells) was 12.17% and the “cell cycle population S” value (T47D cells) was 11.49%. The “cell cycle population G0/G1” value (H1437 cells) was 37.28%, the “cell cycle population G2/M” value (H1437 cells) was 37.75% and the “cell cycle population S” value (H1437 cells) was 24.97%.

In the case of `CCCC(CCC)C(=O)O` [VPA, valproic acid], the “acetylated H4K16 level” value (acetylated H4K16) is reported as “induced the accumulation of acetylated H4K16”.

“Sox2 siRNA: siRNA, human Sox2: CGCUCAUGAAGAAGGAUAA (SEQ ID NO:2) (listed as RNA, chemistry not given here)” was tested, and the “cell cycle population G0/G1” value (A549 cells) was 76.40%, the “cell cycle population G2/M” value (A549 cells) was 0.19% and the “cell cycle population S” value (A549 cells) was 23.41%. For the same compound, the “cell cycle population G0/G1” value (IGROV1 cells) was 74.62%, the “cell cycle population G2/M” value (IGROV1 cells) was 12.52% and the “cell cycle population S” value (IGROV1 cells) was 12.87%. For the same compound, the “cell cycle population G0/G1” value (T47D cells) was 74.65%, the “cell cycle population G2/M” value (T47D cells) was 10.86% and the “cell cycle population S” value (T47D cells) was 14.48%. For the same compound, the “cell cycle population G0/G1” value (H1437 cells) was 39.39%, the “cell cycle population G2/M” value (H1437 cells) was 35.51% and the “cell cycle population S” value (H1437 cells) was 25.10%.

Compound `CN1CCN(CCN[C@@H]2C[C@H]2c2ccc(OCc3ccccc3)cc2)CC1` [Compound 2] has an IC50 (LSD1) of 31.4 µM.

For `CC(/C=C/C(=O)NO)=C\[C@@H](C)C(=O)c1ccc(N(C)C)cc1` [TSA, trichostatin A], the “acetylated H4K16 level” value (acetylated H4K16) was “induced the accumulation of acetylated H4K16”.

`Nc1ccccc1NC(=O)c1ccc(CNC(=O)OCc2cccnc2)cc1` [MS-275] was tested, and the “H4K16 acetylation of oligonucleosomes from treated cells” value [1] was “hyperacetylated on H4K16”, the “deacetylase activity of recombinant HDAC1” value [2] was “inhibited” and the “deacetylase activity of immunoaffinity-purified HDAC1 (HDAC1-protein A)” value (HDAC1-protein A complex) was “sensitive”. For the same compound, the “LSD1 activity in the absence of CoREST” value [3] was “not sensitive”, the “demethylation activity of immunoaffinity-purified LSD1 (LSD1-protein A)” value (LSD1-protein A complex) was “blocked the demethylation activity” and the “HDAC1 deacetylase activity in the reconstituted complex” value [4] was “blocking the HDAC1 activity”. The “LSD1 demethylase activity in the reconstituted complex” value [4] was “partially inhibit the LSD1 demethylase activity” and the “acetylated H4K16 level” value (acetylated H4K16) was “induced the accumulation of acetylated H4K16”.
